Assay results reported in US20110105496A1, “Methods For The Treatment Of Myosin Heavy Chain-Mediated Conditions Using 4,7-Dihydrothieno[2,3-B]Pyridine Compounds” (priority 2005, published 2011).
Read-outs that look alike come from different tables or passages of the source.

Test system: alpha-MyHC
Assay: alpha-MyHC cytoblot process in neonatal rat ventricular myocytes (NRVM)
Assay type: cell-based
Procedure: In vitro activity of each compound is measured using the alpha-MyHC cytoblot process. Briefly, neonatal rat ventricular myocytes (NRVM) at 120,000 cells/ml in HyQ DME/High modified culture media supplemented with 10% charcoal/dextran treated FBS, 0.1% Nutridoma-SP, 1:100 MEM non-essential amino acids, 1:50 MEM amino acids solution w/o L-Gln, 1 mM sodium pyruvate and 1:100 P/S/G, are plated on gelatin coated sterile 384-well plates (Costar 3712) at 6,000 cells per well. Cells are incubated overnight at 37° C. in 5% CO2 100% humidity. Following overnight growth the media is changed to HyQ DME/High modified culture media supplemented with 0.3% Nutridoma-SP, 1:100 MEM non-essential amino acids, 1:50 MEM amino acids solution w/o L-Gln, 1 mM sodium pyruvate and 1:100 P/S/G. Cells are then dosed with serial dilutions of each compound in DMSO. Each concentration in the dose range is dosed in quadruplicate. Dosing is done in such a way so that the final DMSO concentration was 0.44%. Compound dilutions are 3-fold with the final top concentration of 10 uM. […] Following dosing, the cells are incubated for 72 hours at 37° C. in 5% CO2 100% humidity and then processed with the cytoblot method. Briefly, cell media is aspirated and cell monolayers washed with PBS and fixed with 100% methanol for 30 minutes. Fixed cells are then blocked with PBS, 0.05% Tween-20, 1% BSA, for 1 hour. Following blocking, cells are incubated with primary alpha-MyHC-specific antibody antibody (1:30 dilution of BA-G5 hybridoma conditioned media, ATCC HB276) for 1 hour. Following incubation with the primary antibody, cells are washed with PBS, 0.05% Tween-20, 1% BSA and incubated with secondary antibody (1:1000 dilution, goat-anti-mouse HRP, Southern Biotech, 1031-05) for 1 hour. Following incubation with the secondary antibody, wells are washed and incubated in SuperSignal, West Dura HRP-luminescence substrate for 30 seconds under shaking at room temperature. Luminescence is measured using a Packard Fusion plate reader. […] RLU values are converted into per cent fraction of low control and dose responses are fitted to a sigmoidal 4-parameter equation (XLFit, IDBS) where the EC50 and Max Plateau values were extracted. […] Max Plateau is the […] maximum value determined by the dose response fit.

[1] = Table 1, NRVM, 72 hours, alpha-MyHC cytoblot, mean ± spread
[2] = Table 1, NRVM, 72 hours, maximum of dose response fit, low control = vehicle only
[3] = Table 2 (esters), NRVM, 72 hours, alpha-MyHC cytoblot
[4] = Table 2 (esters), NRVM, 72 hours, maximum of dose response fit

SMILES | EC50 [1] [nM] | Max Plateau [2] | Max Plateau [4] | other results
CC(=O)C1=C(C)Nc2sc(C(=O)c3ccc(Cl)c(Cl)c3)c(N)c2C1c1cccs1 (stereo not shown) [Compound 41] | 369 | 178.47 ± 7.82 per cent fraction of low control |  | 
CCOC(=O)C1=C(CC)Nc2sc(C(=O)c3ccc(Cl)c(Cl)c3)c(N)c2C1c1ccncc1F (stereo not shown) [Compound 168] |  |  | 239.64 per cent fraction of low control | EC50 [3]: 7.12 nM
CC(=O)C1=C(C)Nc2sc(C(=O)c3ccc(C)c(C)c3)c(N)c2C1c1ccccc1 (stereo not shown) [Compound 8] | 797 | 172.29 ± 9.66 per cent fraction of low control |  | 
CC(=O)C1=C(C)Nc2sc(C(=O)c3ccc(Cl)c(Cl)c3)c(N)c2C1c1ccc(Cl)cc1Cl (stereo not shown) [Compound 52] |  | 122.73 ± 20.55 per cent fraction of low control |  | 
CCC1=C(C(=O)OC)C(c2cccc(Cl)c2F)c2c(sc(C(=O)c3ccc(Cl)c(Cl)c3)c2N)N1 (stereo not shown) [Compound 155] |  |  | 224.86 per cent fraction of low control | EC50 [3]: 19.3 nM
CCC1=C(C(=O)OCCOC)C(c2ccnc(F)c2)c2c(sc(C(=O)c3cccc(Cl)c3)c2N)N1 (single isomer, unassigned) [Compound 183] |  |  | 284.35 ± 38.37 per cent fraction of low control | 
CCC(=O)C1=C(CC)Nc2sc(C(=O)c3ccc(Cl)c(Cl)c3)c(N)c2C1c1cccc2ccccc12 (stereo not shown) [Compound 85] |  | 105.90 ± 6.18 per cent fraction of low control |  | 
CC1=C(C(=O)OCCN2CCOCC2)C(c2ccccc2)c2c(sc(C(=O)c3ccc(Cl)c(Cl)c3)c2N)N1 (stereo not shown) [Compound 126] |  |  | 193.06 ± 11.02 per cent fraction of low control | EC50 [3]: 210 nM
CCC1=C(C(=O)OCC(C)OC)C(c2ccccc2F)c2c(sc(C(=O)c3cccc(C#N)c3)c2N)N1 (stereo not shown) [Compound 180] |  |  | 279.68 ± 65.32 per cent fraction of low control | EC50 [3]: 63.2 nM
N[C@@H](Cc1cc(I)c(Oc2ccc(O)c(I)c2)c(I)c1)C(=O)O [Compound T3, 3,5,3′-triiodo-L-thyronine, reference compound] |  |  |  | Relative Light Unit (RLU) values (high control, 3 nM T3, low control (vehicle only) 2,000-3,000): 8,000-10,000 RLU
COC(=O)C1=C(C2CC2)Nc2sc(C(=O)c3ccc(Cl)c(Cl)c3)c(N)c2C1c1ccccc1 (stereo not shown) [Compound 133] |  |  | 180.24 per cent fraction of low control | EC50 [3]: 71.5 nM
CC(=O)C1=C(C)Nc2sc(C(=O)c3ccncc3)c(N)c2C1c1ccccc1 (stereo not shown) [Compound 10] | 2680 | 210.00 ± 36.06 per cent fraction of low control |  | 
CCC1=C(C(=O)OCCOC)C(c2ccnc(F)c2)c2c(sc(C(=O)c3cccc(C#N)c3)c2N)N1 (racemic) [Compound 192] |  |  | 237.07 ± 13.03 per cent fraction of low control | 
CCOC(=O)C1=C(CC)Nc2sc(C(=O)c3ccc(Cl)cc3Cl)c(N)c2C1c1ccccc1 (stereo not shown) [Compound 145] |  |  | 224.48 per cent fraction of low control | EC50 [3]: 123 nM
CC1=C(C(=O)OCCN)C(c2ccccc2)c2c(sc(C(=O)c3ccc(Cl)c(Cl)c3)c2N)N1 (racemic) [compound 213] |  |  |  | EC50: 326 nM; Max Plateau: 208.56 ± 23.45
CC(=O)C1=C(C)Nc2sc(C(=O)c3cccc([N+](=O)[O-])c3)c(N)c2C1c1ccccc1Cl (stereo not shown) [Compound 4, 1-[3-amino-4-(2-chloro-phenyl)-6-methyl-2-(3-nitro-benzoyl)-4,7dihydro-thieno[2,3-b]pyridin-5-yl]-ethanone] |  | 244.20 ± 37.25 per cent fraction of low control |  | 
COC(=O)C1=C(C(C)(C)C)Nc2sc(C(=O)c3ccc(Cl)c(Cl)c3)c(N)c2C1c1ccccc1 (stereo not shown) [Compound 131] |  |  | 158.97 per cent fraction of low control | EC50 [3]: 2900 nM
COC(=O)C1=C(C(C)C)Nc2sc(C(=O)c3ccc(Cl)c(Cl)c3)c(N)c2C1c1cccc([N+](=O)[O-])c1 (stereo not shown) [Compound 134] |  |  | 98.33 per cent fraction of low control | 
CC(=O)C1=C(C)Nc2sc(C(=O)c3ccccc3)c(N)c2C1c1ccccc1F (stereo not shown) [Compound 24] | 273 | 260.35 ± 43.53 per cent fraction of low control |  | 
CCC1=C(C(=O)OC)C(c2ccccc2F)c2c(sc(C(=O)c3cccc(C#N)c3)c2N)N1 (stereo not shown) [Compound 164] |  |  | 279.90 per cent fraction of low control | EC50 [3]: 2.83 nM
COC(=O)c1cccc(C(=O)c2sc3c(c2N)C(c2ccccc2)C(C(C)=O)=C(C)N3)c1 (stereo not shown) [Compound 62] | 361 | 279.31 ± 67.94 per cent fraction of low control |  | 
CCC(=O)C1=C(CC)Nc2sc(C(=O)c3ccc(Cl)c(Cl)c3)c(N)c2C1c1ccccc1F (racemic) [Compound 39, 1-[3-amino-2-(3,4-dichloro-benzoyl)-6-ethyl-4-(2-fluoro-phenyl)-4,7-dihydro-thieno[2,3b]pyridin-5-yl]-propan-1-one] |  |  |  | EC50 (Rattus norvegicus, Ventricular myocyte, Table 1, NRVM, 72 hours, alpha-MyHC cytoblot, mean ± spread): 17.1 nM; Emax (Rattus norvegicus, Ventricular myocyte, Table 1, NRVM, 72 hours, maximum of dose response fit, low control = vehicle only, read-out: Max Plateau): 273 ± 37.3%
CCC1=C(C(=O)OCCOC)C(c2ccccc2F)c2c(sc(C(=O)c3cccc(Cl)c3)c2N)N1 (single isomer, unassigned) [Compound 179] |  |  | 237.11 ± 19.59 per cent fraction of low control | 

Further lines, with some results ahead:

EC50 [1] [nM] | SMILES | Max Plateau [2] | Max Plateau [4] | other results
233 | CCC(=O)C1=C(CC)Nc2sc(C(=O)c3ccccc3)c(N)c2C1c1cccnc1 (stereo not shown) [Compound 68] | 175.88 ± 14.54 per cent fraction of low control |  | 
177 | CC(=O)C1=C(C)Nc2sc(C(=O)c3ccc(Cl)c(Cl)c3)c(N)c2C1c1ccccc1 (stereo not shown) [Compound 2] | 207.74 ± 23.00 per cent fraction of low control |  | 
1250 | CC(=O)C1=C(C)Nc2sc(C(=O)c3ccc(Cl)c(Cl)c3)c(N)c2C1c1ccccc1O (stereo not shown) [Compound 34] | 184.69 ± 15.76 per cent fraction of low control |  | 
2140 | CCC(=O)C1=C(CC)Nc2sc(C(=O)c3cccc(C(=O)O)c3)c(N)c2C1c1ccccc1 (stereo not shown) [Compound 77] | 220.00 ± 10.00 per cent fraction of low control |  | 
86.4 | CC(=O)C1=C(C)Nc2sc(C(=O)c3ccc(Cl)c(Cl)c3)c(N)c2C1c1ccccc1F (stereo not shown) [Compound 27] | 220.13 ± 23.10 per cent fraction of low control |  | 
425 | CCC(=O)C1=C(CC)Nc2sc(C(=O)c3ccc(Cl)c(Cl)c3)c(N)c2C1c1ccccc1[N+](=O)[O-] (stereo not shown) [Compound 59] | 152.77 ± 11.42 per cent fraction of low control |  | 
627 | CCCC(=O)C1=C(CCC)Nc2sc(C(=O)c3ccc(Cl)c(Cl)c3)c(N)c2C1c1ccccc1 (stereo not shown) [Compound 86] | 131.26 ± 2.34 per cent fraction of low control |  | 
57.5 | CCC(=O)C1=C(CC)Nc2sc(C(=O)c3ccc4c(c3)OCO4)c(N)c2C1c1ccccc1F (stereo not shown) [Compound 71] | 223.30 ± 32.84 per cent fraction of low control |  | 
12.1 | CCC(=O)C1=C(CC)Nc2sc(C(=O)c3ccccc3F)c(N)c2C1c1ccccc1 (stereo not shown) [Compound 67] | 256.12 ± 53.66 per cent fraction of low control |  | 
217 | CCCC(=O)C1=C(CCC)Nc2sc(C(=O)c3ccc(Cl)c(Cl)c3)c(N)c2C1c1ccccc1F (stereo not shown) [Compound 87] | 187.66 ± 12.24 per cent fraction of low control |  | 
14.4 | CCC(=O)C1=C(CC)Nc2sc(C(=O)c3cccc(F)c3)c(N)c2C1c1ccccc1 (stereo not shown) [Compound 49] | 299.18 ± 42.31 per cent fraction of low control |  | 
20.8 | CCC(=O)C1=C(CC)Nc2sc(C(=O)c3ccc(Cl)c(Cl)c3)c(N)c2C1c1c(F)cccc1F (stereo not shown) [Compound 63] | 230.07 ± 45.59 per cent fraction of low control |  | 
9.69 | CCC(=O)C1=C(CC)Nc2sc(C(=O)c3ccc(Cl)c(C)c3)c(N)c2C1c1ccccc1 (stereo not shown) [Compound 89] | 230.09 ± 19.81 per cent fraction of low control |  | 
